# Reference: patent publication US20160136229A1, “MATERIALS FOR POSITIVE CATHEPSIN B MODULATION AND METHODS OF USE FOR TREATING MILD COGNITIVE IMPAIRMENT (MCI), EARLY DEMENTIA, A-SYNUCLEINOPATHY, TRAUMATIC BRAIN INJURY, CARDIOMYOPATHY, EYE DISEASE AND SKIN DAMAGE” (University of North Carolina at Pembroke, priority 2013, published 2016)
# What was measured:
# intracellular Aβ1-42 = experiment: Intracellular Aβ1-42 in pyramidal neurons of APPswe/PS1ΔE9 transgenic mice; type: in vivo, mouse; details: PADK-treated APPswe/PS1ΔE9 transgenic mice; CA1
# Excerpt: FIG. 1. Lysosomal modulation increases the cathepsin B content of lysosomes and reduces intracellular Δβ1-42 in the APPswe/PS1ΔE9 transgenic mouse model of Alzheimer's disease. […] Without wishing to be bound by any scientific theory, the latter steps may involve processing/trafficking of active intermediate (intCB) and mature forms (matCB) from early/late endosomes to lysosomes in order to promote protein degradation (A). […] The increase in organellar cathepsin B enzyme (red) in PADK-treated APPswe/PS1ΔE9 transgenic mice (tg) was associated with a decrease in intracellular Δβ1-42 in the CA1 pyramidal neurons (C). Arrows denote co-localization in lysosomes, capturing intact Δβ1-42 before being degraded by cathepsin B. View-field widths: 12 μm. wt, vehicle-treated wild-type mice.
# The lysosomal modulator Z-Phe-Ala-diazomethylketone (PADK) is administered to APPswe/PS1ΔE9 transgenic mice. Low-level PADK enhances cathepsin trafficking and maturation, thereby improving the clearance capacity of lysosomes (FIG. 1). It attenuates both PHF-tau and synaptic decline in the hippocampal slice model of protein accumulation (Bendiske and Bahr, 2003; Butler et al., 2005; Bahr, 2009). […] In PADK-treated transgenic mice, the increase in organellar cathepsin B was associated with a decrease in intracellular Aβ1-42 in pyramidal neurons (FIG. 1C).
# active cathepsin B = target: T1, active cathepsin B (Mus musculus, UniProt P10605); experiment: Active cathepsin B staining in PADK-treated mice; type: in vivo; details: 18 mg/kg/d×9 days, ip, vs vehicle
# T1 construct: from tissue; host or cells: brain and CNS regions of mice (PADK-treated mice, A53T transgenic and wild-type mice, C57BL/6 mice)
# T1 sequence (P10605 80-333 limits assumed): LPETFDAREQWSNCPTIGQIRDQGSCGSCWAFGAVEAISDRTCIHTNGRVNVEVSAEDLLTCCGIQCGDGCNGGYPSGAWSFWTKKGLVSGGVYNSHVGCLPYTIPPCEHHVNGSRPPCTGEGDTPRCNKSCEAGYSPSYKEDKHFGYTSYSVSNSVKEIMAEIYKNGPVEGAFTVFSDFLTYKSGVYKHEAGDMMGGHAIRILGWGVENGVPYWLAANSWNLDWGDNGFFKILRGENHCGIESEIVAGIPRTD
# Experimental: (§1) FIG. 4. Enhancing lysosome efficiency with the cathepsin B modulator PADK leads to reductions of multiple types of proteinopathy-related accumulation events. […] Age-matched wild-type mice (wt) and 9-10-month mutant human APP mice, a model of early dementia, treated with or without PADK were assessed for the 4-kDa Δβ peptide, the active form of cathepsin B (act CB), and other proteins in hippocampal samples (C). Similar treatment groups used another APP mouse model at 20-22 months of age to measure clearance of APP carboxyterminal fragments APP-αCTF and APP-βCTF (D). Rat hippocampal slice cultures from the untreated control group (con) and slices treated with submicromolar Δβ42 (early tauopathy model) in the absence or presence of PADK (5 μM for 4 days) were assessed for phosphorylated tau (pTau) and other proteins (E). For a model of early α-synucleinopathy, human A53T α-synuclein transgenic mice, at 7 months old, were studied with or without PADK treatment and assessed for human α-synuclein (α-syn) in TX-100 extracts of hippocampus and for other proteins in hippocampal homogenates (F). Plotted data (±SEM) were compared to neighboring vehicle groups by unpaired t-tests: *p=0.02, **p<0.01, ***p<0.001. APPswind and APP-PS1 mice are described in Butler et al., (2011), the entire content of which is hereby incorporated herein by reference.
# APP-αCTF and APP-βCTF = experiment: Clearance of APP carboxyterminal fragments in APP mouse model; type: in vivo; details: PADK-treated transgenic mice, 20-22 months; correlated with augmented active CatB
# Experimental: as §1, with “reference. […]” for “reference.”
# [1] = test system: phosphorylated tau (pTau); experiment: pTau in Aβ42-treated rat hippocampal slice cultures (early tauopathy model); type: cell-based; details: 5 μM for 4 days
# Experimental: as §1, with “reference. […]” for “reference.”
# mutant colonies = experiment: Ames test of genetic toxicity; type: cell-based; details: in contrast to a mutagen tested in parallel
compound,measurement,setting,value
"C[C@H](NC(=O)[C@H](Cc1ccccc1)NC(=O)OCc1ccccc1)C(=O)C=[N+]=[N-] [PADK, N-carbobenzyloxy-L-phenylalanyl-L-alanyl-diazomethylketone]",intracellular Aβ1-42 in pyramidal neurons,intracellular Aβ1-42,decrease
same,levels of active cathepsin B,active cathepsin B,increased levels of active cathepsin B
same,APP carboxy-terminal fragments (αCTF and βCTF),APP-αCTF and APP-βCTF,reductions
same,pTau accumulation,[1],significant decrease
same,synaptic protection,[1],evidence of synaptic protection
same,mutant colonies in the Ames test,mutant colonies,did not produce mutant colonies
